{"source": "patent US20060052314A1", "about": "“Pharmaceutical combination” (priority 2002, published 2006)", "key": {"[1]": {"assay": "Test G: conversion to active inhibitor in liver microsomes from humans", "type": "in vitro ADME", "method": "(§1) By “prodrug of a thrombin inhibitor”, we include compounds that form a thrombin inhibitor, in an experimentally-detectable amount, and within a predetermined time (e.g. about 1 hour), following oral or parenteral administration (see, for example, Test E below) or, alternatively, following incubation in the presence of liver microsomes (see, for example, Test G below)."}, "[2]": {"assay": "Test G: conversion to active inhibitor in liver microsomes from rats", "type": "in vitro ADME", "method": "as §1"}, "thrombin": {"target": "thrombin (Homo sapiens, UniProt P00734)", "assay": "Test A: IC50TT", "type": "biochemical"}}, "note": "Where a name gives a salt, the structure may show the parent alone."}
{"compound": "CON=C(N)c1ccc(CNC(=O)[C@@H]2CCN2C(=O)[C@H](O)c2cc(Cl)cc(OC(F)F)c2)cc1", "note": "[Example 12, Ph(3-Cl)(5-OCHF2)—(R)CH(OH)C(O)-Aze-Pab(OMe)]", "values": [{"measurement": "conversion to the corresponding active inhibitor (free amidine)", "setting": "[1]", "result": "converted to the corresponding active inhibitor (free amidine)"}, {"measurement": "conversion to the corresponding active inhibitor (free amidine)", "setting": "[2]", "result": "converted to the corresponding active inhibitor (free amidine)"}]}
{"compound": "CO/N=C(\\N)c1cc(F)c(CNC(=O)[C@@H]2CCN2C(=O)[C@H](O)c2cc(Cl)cc(OC(F)F)c2)c(F)c1", "note": "[Example 40, Ph(3-Cl)(5-OCHF2)—(R)CH(OH)C(O)-Aze-Pab(2,6-diF)(OMe)]", "values": [{"measurement": "conversion to the corresponding active inhibitor (free amidine)", "setting": "[1]", "result": "converted to the corresponding active inhibitor (free amidine)"}, {"measurement": "conversion to the corresponding active inhibitor (free amidine)", "setting": "[2]", "result": "converted to the corresponding active inhibitor (free amidine)"}]}
{"compound": "CON=C(N)c1ccc(CNC(=O)[C@@H]2CCN2C(=O)[C@H](CO)c2cc(Cl)cc(OC(F)(F)F)c2)cc1", "note": "[Example 11, Ph(3-Cl)(5-OCF3)—(S)CH(CH2OH)C(O)-Aze-Pab(OMe)]", "values": [{"measurement": "conversion to the corresponding active inhibitor (free amidine)", "setting": "[1]", "result": "converted to the corresponding active inhibitor (free amidine)"}, {"measurement": "conversion to the corresponding active inhibitor (free amidine)", "setting": "[2]", "result": "converted to the corresponding active inhibitor (free amidine)"}]}
{"compound": "N=C(N)c1cc(F)c(CNC(=O)[C@@H]2CCN2C(=O)[C@H](O)c2cc(Cl)cc(OC(F)F)c2)c(F)c1", "note": "[Example 39, Ph(3-Cl)(5-OCHF2)—(R)CH(OH)C(O)-Aze-Pab(2.6-diF)]", "values": [{"measurement": "IC50", "setting": "thrombin", "result": "< 20", "unit": "nM"}]}
{"compound": "CON=C(N)c1ccc(CNC(=O)[C@@H]2CCN2C(=O)[C@H](O)c2cc(Cl)cc(OCC(F)F)c2)cc1", "note": "[Example 18, Ph(3-Cl)(5-OCH2CHF2)—(R)CH(OH)C(O)-Aze-Pab(OMe)]", "values": [{"measurement": "conversion to the corresponding active inhibitor (free amidine)", "setting": "[1]", "result": "converted to the corresponding active inhibitor (free amidine)"}, {"measurement": "conversion to the corresponding active inhibitor (free amidine)", "setting": "[2]", "result": "converted to the corresponding active inhibitor (free amidine)"}]}
{"compound": "CON=C(N)c1ccc(CNC(=O)[C@@H]2CCCN2C(=O)[C@H](O)c2cc(Cl)cc(OC(F)F)c2)cc1", "note": "[Example 33, Ph(3-Cl)(5-OCHF2)—(R)CH(OH)—C(O)-Pro-Pab(OMe)]", "values": [{"measurement": "conversion to the corresponding active inhibitor (free amidine)", "setting": "[1]", "result": "converted to the corresponding active inhibitor (free amidine)"}, {"measurement": "conversion to the corresponding active inhibitor (free amidine)", "setting": "[2]", "result": "converted to the corresponding active inhibitor (free amidine)"}]}
{"compound": "NC(=NO)c1ccc(CNC(=O)[C@@H]2CCN2C(=O)[C@H](O)c2cc(Cl)cc(OC(F)F)c2)cc1", "note": "[Example 2, Ph(3-Cl)(5-OCHF2)—(R)CH(OH)C(O)-Aze-Pab(OH)]", "values": [{"measurement": "conversion to the corresponding active inhibitor (free amidine)", "setting": "[1]", "result": "converted to the corresponding active inhibitor (free amidine)"}, {"measurement": "conversion to the corresponding active inhibitor (free amidine)", "setting": "[2]", "result": "converted to the corresponding active inhibitor (free amidine)"}]}
{"compound": "CON=C(N)c1ccc(CNC(=O)[C@@H]2CCN2C(=O)[C@H](O)c2cc(F)cc(OC(F)F)c2)cc1", "note": "[Example 26, Ph(3-F)(5-OCHF2)—(R)CH(OH)C(O)-Aze-Pab(OMe)]", "values": [{"measurement": "conversion to the corresponding active inhibitor (free amidine)", "setting": "[1]", "result": "converted to the corresponding active inhibitor (free amidine)"}, {"measurement": "conversion to the corresponding active inhibitor (free amidine)", "setting": "[2]", "result": "converted to the corresponding active inhibitor (free amidine)"}]}
{"compound": "N=C(N)c1cc(F)c(CNC(=O)[C@@H]2CCN2C(=O)[C@H](O)c2cc(Cl)cc(OC(F)F)c2)cc1F", "note": "[Example 41, Ph(3-Cl)(5-OCHF2)—(R)CH(OH)C(O)-Aze-Pab(2,5-diF)]", "values": [{"measurement": "IC50", "setting": "thrombin", "result": "< 150", "unit": "nM"}]}
{"compound": "CON=C(N)c1ccc(CNC(=O)[C@@H]2CCN2C(=O)[C@H](O)c2cc(Cl)cc(OC(CF)CF)c2)cc1", "note": "[Example 24, Ph(3-Cl)(5-OCH(CH2F)2)—(R)CH(OH)C(O)-Aze-Pab(OMe)]", "values": [{"measurement": "conversion to the corresponding active inhibitor (free amidine)", "setting": "[1]", "result": "converted to the corresponding active inhibitor (free amidine)"}, {"measurement": "conversion to the corresponding active inhibitor (free amidine)", "setting": "[2]", "result": "converted to the corresponding active inhibitor (free amidine)"}]}
{"compound": "N=C(N)c1cnc(CNC(=O)[C@@H]2CCN2C(=O)[C@H](O)c2cc(Cl)cc(OC(F)F)c2)nc1", "note": "[Example 36, Ph(3-Cl)(5-OCHF2)—(R)CH(OH)C(O)-Aze-NH—CH2-((5-amidino)-2-pyrimidinyl)]", "values": [{"measurement": "IC50", "setting": "thrombin", "result": "< 3500", "unit": "nM"}]}
{"compound": "Ph(3-Br)(5-OCHF2)—(R)CH(OH)C(O)-Aze-Pab(OMe) [Example 29]", "values": [{"measurement": "conversion to the corresponding active inhibitor (free amidine)", "setting": "[1]", "result": "converted to the corresponding active inhibitor (free amidine)"}, {"measurement": "conversion to the corresponding active inhibitor (free amidine)", "setting": "[2]", "result": "converted to the corresponding active inhibitor (free amidine)"}]}
{"compound": "CCON=C(N)c1ccc(CNC(=O)[C@@H]2CCN2C(=O)[C@H](O)c2cc(Cl)cc(OC(F)F)c2)cc1", "note": "[Example 43, Ph(3-Cl)(5-OCHF2)—(R)CH(OH)C(O)-Aze-Pab(OEt)]", "values": [{"measurement": "conversion to the corresponding active inhibitor (free amidine)", "setting": "[1]", "result": "converted to the corresponding active inhibitor (free amidine)"}, {"measurement": "conversion to the corresponding active inhibitor (free amidine)", "setting": "[2]", "result": "converted to the corresponding active inhibitor (free amidine)"}]}
{"compound": "CON=C(N)c1ccc(CNC(=O)[C@@H]2CCN2C(=O)[C@H](O)c2cc(Cl)cc(OCCF)c2)cc1", "note": "[Example 22, Ph(3-Cl)(5-OCH2CH2F)—(R)CH(OH)C(O)-Aze-Pab(OMe)]", "values": [{"measurement": "conversion to the corresponding active inhibitor (free amidine)", "setting": "[1]", "result": "converted to the corresponding active inhibitor (free amidine)"}, {"measurement": "conversion to the corresponding active inhibitor (free amidine)", "setting": "[2]", "result": "converted to the corresponding active inhibitor (free amidine)"}]}
{"compound": "CON=C(N)c1ccc(CNC(=O)[C@@H]2CCN2C(=O)[C@H](O)c2cc(Cl)cc(OCF)c2)cc1", "note": "[Example 20, Ph(3-Cl)(5-OCH2F)—(R)CH(OH)C(O)-Aze-Pab(OMe)]", "values": [{"measurement": "conversion to the corresponding active inhibitor (free amidine)", "setting": "[1]", "result": "converted to the corresponding active inhibitor (free amidine)"}, {"measurement": "conversion to the corresponding active inhibitor (free amidine)", "setting": "[2]", "result": "converted to the corresponding active inhibitor (free amidine)"}]}
{"compound": "CC(C)ON=C(N)c1ccc(CNC(=O)[C@@H]2CCN2C(=O)[C@H](O)c2cc(Cl)cc(OC(F)F)c2)cc1", "note": "[Example 45, Ph(3-Cl)(5-OCHF2)—(R)CH(OH)C(O)-Aze-Pab(OiPr)]", "values": [{"measurement": "conversion to the corresponding active inhibitor (free amidine)", "setting": "[1]", "result": "converted to the corresponding active inhibitor (free amidine)"}, {"measurement": "conversion to the corresponding active inhibitor (free amidine)", "setting": "[2]", "result": "converted to the corresponding active inhibitor (free amidine)"}]}
{"compound": "Ph(3-Cl)(5-OCHF2)—(R)CH(OH)C(O)-Aze-Pab(OcBu) [Example 1]", "values": [{"measurement": "conversion to the corresponding active inhibitor (free amidine)", "setting": "[1]", "result": "converted to the corresponding active inhibitor (free amidine)"}, {"measurement": "conversion to the corresponding active inhibitor (free amidine)", "setting": "[2]", "result": "converted to the corresponding active inhibitor (free amidine)"}]}
{"compound": "CO/N=C(\\N)c1cnc(CNC(=O)[C@@H]2CCN2C(=O)[C@H](O)c2cc(Cl)cc(OC(F)F)c2)nc1", "note": "[Example 37, Ph(3-Cl)(5-OCHF2)—(R)CH(OH)C(O)-Aze-NH—CH2-((5-methoxyamidino)-2-pyrimidinyl)]", "values": [{"measurement": "conversion to the corresponding active inhibitor (free amidine)", "setting": "[1]", "result": "converted to the corresponding active inhibitor (free amidine)"}, {"measurement": "conversion to the corresponding active inhibitor (free amidine)", "setting": "[2]", "result": "converted to the corresponding active inhibitor (free amidine)"}]}
{"compound": "CON=C(N)c1ccc(CNC(=O)[C@@H]2CCN2C(=O)[C@H](O)c2cc(Cl)cc(OCC(F)(F)F)c2)cc1", "note": "[Example 16, Ph(3-Cl)(5-OCH2CF3)—(R)CH(OH)C(O)-Aze-Pab(OMe)]", "values": [{"measurement": "conversion to the corresponding active inhibitor (free amidine)", "setting": "[1]", "result": "converted to the corresponding active inhibitor (free amidine)"}, {"measurement": "conversion to the corresponding active inhibitor (free amidine)", "setting": "[2]", "result": "converted to the corresponding active inhibitor (free amidine)"}]}
{"compound": "N=C(N)c1ccc(CNC(=O)[C@@H]2CCN2C(=O)[C@H](O)c2cc(Cl)cc(OC(F)F)c2)cn1", "note": "[Example 34, Ph(3-Cl)(5-OCHF2)—(R)CH(OH)C(O)-Aze-NH—CH2-((2-amidino)-5-pyridinyl)]", "values": [{"measurement": "IC50", "setting": "thrombin", "result": "< 20", "unit": "nM"}]}
{"compound": "CON=C(N)c1ccc(CNC(=O)[C@@H]2CCN2C(=O)[C@H](O)c2cc(Cl)cc(OC(F)(F)F)c2)cc1", "note": "[Example 7, Ph(3-Cl)(5-OCF3)—(R)CH(OH)C(O)-Aze-Pab(OMe)]", "values": [{"measurement": "conversion to the corresponding active inhibitor (free amidine)", "setting": "[1]", "result": "converted to the corresponding active inhibitor (free amidine)"}, {"measurement": "conversion to the corresponding active inhibitor (free amidine)", "setting": "[2]", "result": "converted to the corresponding active inhibitor (free amidine)"}]}
{"compound": "N=C(N)c1ccc(CNC(=O)[C@@H]2CCN2C(=O)[C@H](O)c2cc(Cl)cc(OC(F)F)c2)cc1F", "note": "[Example 38, Ph(3-Cl)(5-OCHF2)—(R)CH(OH)C(O)-Aze-Pab(3-F)]", "values": [{"measurement": "IC50", "setting": "thrombin", "result": "< 150", "unit": "nM"}]}
{"compound": "N=C(N)c1cnc(CNC(=O)[C@@H]2CCN2C(=O)[C@H](O)c2cc(Cl)cc(OC(F)F)c2)nc1", "note": "(as salt: TFA) [Example 36, Ph(3-Cl)(5-OCHF2)—(R)CH(OH)C(O)-Aze-NH—CH2-((5-amidino)-2-pyrimidinyl)]", "values": [{"measurement": "melting point", "result": "86 to 87", "unit": "°C"}]}
